Measurements published in article PMC10654507, “A cleavable chimeric peptide with targeting and killing domains enhances LPS neutralization and antibacterial properties against multi-drug resistant E. coli” (Communications Biology, 2023).
Values after ≈ are worked out from the molar mass of the structure shown. Like-named read-outs stand apart in the source and are kept apart here. Residues, ends and D or L forms follow the SMILES beside them. No end group written: not given here.

Assays:
[1] = system: S. typhimurium CVCC533; type: cell-based, Salmonella typhimurium
Procedure: (§1) The minimum inhibitory concentration (MIC) and minimum bactericidal concentration (MBC) of peptides were determined by the microtiter broth dilution method according to Clinical and Laboratory Standards Institute (CLSI) guidelines. […] PBS was used as the negative control. […] The MBC value was calculated as the lowest concentration of peptides resulting in a 99.9% reduction of the original inoculum. All experiments were repeated three times.

[2] = system: S. aureus CVCC546; type: cell-based, Staphylococcus aureus
Procedure: as §1

[3] = system: Escherichia coli CVCC195; type: cell-based
Procedure: as §1

[4] = system: Staphylococcus aureus ATCC43300; type: cell-based; details: ATCC43300, 18 h
Procedure: as §1

[5] = system: E. coli, S. typhimurium and S. aureus; type: cell-based; details: 18 h
Procedure: as §1

[6] = system: E. coli 0111: B4 LPS; assay: BC (BODIPY-TR-cadaverine) displacement assay, binding to LPS; set-up: species or system Escherichia coli; unit not given here; details: Fig. 4a source data, mean
Procedure: The binding of peptides to LPS was determined according to the method described previously[34],[59]. In brief, E. coli 0111: B4 LPS (40 μg/mL) and BODIPY-TR-cadaverine (BC) (10 μM) were mixed in 50 mM Tris buffer (pH = 7.4) in equal proportions and added to a 96-well black plate (180 μL/well) in the dark. Different concentrations of chimeric peptide R7 and its parental (20 μL) were added into each well and detected by a fluorescence spectrophotometry at room temperature (excitation wavelength 580 nm, emission wavelength 620 nm). The change in relative fluorescence was recorded and the BC displacement rate was calculated. Polymycin B (PMB) was used as the positive control.

[7] = lowest concentration giving 99.9% reduction of the inoculum, repeated three times
[8] = microtiter broth dilution, 10^5 CFU/mL, 37 °C, 16 ~ 18 h, repeated three times

Molecule	MIC ([1]; CVCC533, 18 h) [µM]	MIC ([2]; CVCC546, 18 h) [µM]	MIC ([3]; CVCC195, 18 h) [µM]	MIC [4] [µM]	MBC ([2]; CVCC546, 18 h) [µM]	MBC ([3]; CVCC195, 18 h) [µM]	MBC [4] [µM]	other results
CSCC[C@H](NC(=O)[C@H](CCCNC(=N)N)NC(=O)[C@H](Cc1c[nH]c2ccccc12)NC(=O)[C@H](C)NC(=O)[C@H](Cc1c[nH]c2ccccc12)NC(=O)[C@H](CCCNC(=N)N)NC(=O)[C@H](Cc1c[nH]c2ccccc12)NC(=O)[C@H](C)NC(=O)[C@H](CCCCN)NC(=O)[C@H](Cc1ccccc1)NC(=O)[C@@H](N)CCCNC(=N)N)C(=O)N[C@@H](CCCCN)C(=O)N[C@@H](CCCCN)C(=O)N[C@@H](CC(C)C)C(=O)N[C@@H](C)C(=O)N[C@@H](C)C(=O)N1CCC[C@H]1C(=O)N[C@@H](CO)C(=O)O [R-L7] (H-RFKAWRWAWRMKKLAAPS-OH)	18.1 (≈ 41.4 µg/mL)	18.1 (≈ 41.4 µg/mL)	2.26 (≈ 5.17 µg/mL)	18.1 (≈ 41.4 µg/mL)	–	–	–	–
CC(C)[C@H](NC(=O)[C@H](CCCCN)NC(=O)[C@H](Cc1c[nH]c2ccccc12)NC(=O)[C@H](CCCNC(=N)N)NC(=O)CNC(=O)[C@H](CCC(N)=O)NC(=O)[C@@H](NC(=O)[C@@H](N)CCCNC(=N)N)C(C)C)C(=O)N[C@@H](CCCNC(=N)N)C(=O)N[C@@H](C)C(=O)N[C@@H](CO)C(=O)N[C@@H](Cc1ccccc1)C(=O)N[C@@H](Cc1ccccc1)C(=O)N[C@@H](CCCCN)C(=O)O [LBP14, reference compound] (H-RVQGRWKVRASFFK-OH)	18.1 (≈ 31.9 µg/mL)	36.2 (≈ 63.9 µg/mL)	4.53 (≈ 8 µg/mL)	36.2 (≈ 63.9 µg/mL)	>36.2	4.53 (≈ 8 µg/mL)	36.2 (≈ 63.9 µg/mL)	MBC ([1]; CVCC533, 18 h): 18.1 µM (≈ 31.9 µg/mL)
CC(C)[C@H](NC(=O)[C@H](CCCCN)NC(=O)[C@H](Cc1c[nH]c2ccccc12)NC(=O)[C@H](CCCNC(=N)N)NC(=O)CNC(=O)[C@H](CCC(N)=O)NC(=O)[C@@H](NC(=O)[C@@H](N)CCCNC(=N)N)C(C)C)C(=O)N[C@@H](CCCNC(=N)N)C(=O)N[C@@H](C)C(=O)N[C@@H](CO)C(=O)N[C@@H](Cc1ccccc1)C(=O)N[C@@H](Cc1ccccc1)C(=O)N[C@@H](CCCCN)C(=O)N[C@@H](CCCNC(=N)N)C(=O)N[C@@H](CCCCN)C(=O)N[C@@H](CCCNC(=N)N)C(=O)O [LBP14-RKR] (H-RVQGRWKVRASFFKRKR-OH)	4.53 (≈ 9.99 µg/mL)	9.06 (≈ 20 µg/mL)	2.26 (≈ 4.98 µg/mL)	4.53 (≈ 9.99 µg/mL)	–	–	–	–
RVQGRWKVRASFFKEAAAKEAAAKFKAWRWAWRMKKLAAPS [A7]	>36.2	>36.2	36.2	>36.2	>36.2	36.2	>36.2	MBC ([1]; CVCC533, 18 h): >36.2 µM; antibacterial activity (MIC) [5]: ≥ 18.1 µM
CSCC[C@H](NC(=O)[C@H](CCCNC(=N)N)NC(=O)[C@H](Cc1c[nH]c2ccccc12)NC(=O)[C@H](C)NC(=O)[C@H](Cc1c[nH]c2ccccc12)NC(=O)[C@H](CCCNC(=N)N)NC(=O)[C@H](Cc1c[nH]c2ccccc12)NC(=O)[C@H](C)NC(=O)[C@H](CCCCN)NC(=O)[C@H](Cc1ccccc1)NC(=O)[C@H](CO)NC(=O)CNC(=O)CNC(=O)CNC(=O)CNC(=O)[C@H](CCCCN)NC(=O)[C@H](Cc1ccccc1)NC(=O)[C@H](Cc1ccccc1)NC(=O)[C@H](CO)NC(=O)[C@H](C)NC(=O)[C@H](CCCNC(=N)N)NC(=O)[C@@H](NC(=O)[C@H](CCCCN)NC(=O)[C@H](Cc1c[nH]c2ccccc12)NC(=O)[C@H](CCCNC(=N)N)NC(=O)CNC(=O)[C@H](CCC(N)=O)NC(=O)[C@@H](NC(=O)[C@@H](N)CCCNC(=N)N)C(C)C)C(C)C)C(=O)N[C@@H](CCCCN)C(=O)N[C@@H](CCCCN)C(=O)N[C@@H](CC(C)C)C(=O)N[C@@H](C)C(=O)N[C@@H](C)C(=O)N1CCC[C@H]1C(=O)N[C@@H](CO)C(=O)O [G7] (H-RVQGRWKVRASFFKGGGGSFKAWRWAWRMKKLAAPS-OH)	>36.2	>36.2	18.1 (≈ 75.9 µg/mL)	>36.2	>36.2	18.1 (≈ 75.9 µg/mL)	>36.2	antibacterial activity (MIC) [5]: ≥ 18.1 µM
CC(C)[C@H](NC(=O)[C@H](CCCCN)NC(=O)[C@H](Cc1c[nH]c2ccccc12)NC(=O)[C@H](CCCNC(=N)N)NC(=O)CNC(=O)[C@H](CCC(N)=O)NC(=O)[C@@H](NC(=O)[C@@H](N)CCCNC(=N)N)C(C)C)C(=O)N[C@@H](CCCNC(=N)N)C(=O)N[C@@H](C)C(=O)N[C@@H](CO)C(=O)N[C@@H](Cc1ccccc1)C(=O)N[C@@H](Cc1ccccc1)C(=O)N[C@@H](CCCCN)C(=O)N[C@@H](CCCNC(=N)N)C(=O)N[C@@H](CCCCN)C(=O)N[C@@H](CCCNC(=N)N)C(=O)N[C@@H](CCCNC(=N)N)C(=O)O [LBP14-RKRR] (H-RVQGRWKVRASFFKRKRR-OH)	4.53 (≈ 10.7 µg/mL)	9.06 (≈ 21.4 µg/mL)	2.26 (≈ 5.34 µg/mL)	4.53 (≈ 10.7 µg/mL)	9.06 (≈ 21.4 µg/mL)	2.26 (≈ 5.34 µg/mL)	–	–
polymyxin B [PMB, reference compound]	–	–	–	–	–	–	–	MBC [1, 7]: 8 µM; MIC [1, 8]: 8 µM; MBC [2, 7]: >64 µM; MIC [2, 8]: >64 µM; MBC [3, 7]: 1 µM; MIC [3, 8]: 1 µM; binding affinity to LPS ([6]; peptide concentration 0.05 μM): 10.8258; binding affinity to LPS ([6]; peptide concentration 0.1 μM): 13.138; binding affinity to LPS ([6]; peptide concentration 0.5 μM): 19.3303; binding affinity to LPS ([6]; peptide concentration 1 μM): 24.2435; binding affinity to LPS ([6]; peptide concentration 5 μM): 53.9917; binding affinity to LPS ([6]; peptide concentration 10 μM): 65.3662; binding affinity to LPS ([6]; peptide concentration 50 μM): 89.1421; binding affinity to LPS ([6]; peptide concentration 100 μM): 85.6684
